# Laboratory results as given in patent US12673022B2, “Drug delivery system using solution” (Kyoto University, priority 2018, dated 2026).
# What was measured:
# [1] = test system: EGFP reporter cells (C2C12 cells); assay: Number of HOECHST cells detected (cell viability) in the EGFP-SSA assay; details: Example 1; compound 250.0 mM vs 250 mM GABA positive control on the same plate; formula (2)
# Protocol: To each of the solutions, a complex of gRNA and Cas9 protein was further dissolved. Mouse myoblasts (C2C12 cells) were contacted with each of the solutions in vitro, and target gene cleavage activity and cell viability were evaluated.
# [2] = test system: C57BL/6J mouse right lower limb gastrocnemius; assay: DNA mutation introduction efficiency using mRosa26 gRNA (T7E1 assay) after local administration; type: in vivo; details: Example 6; administration solution 2: 25 mM or 250 mM 2′-deoxycytidine, 6-phospho-D-gluconic acid, N-carbamyl-L-aspartic acid or 2-deoxy-D-glucose-6-phosphate, 533 mM sodium chloride; 50 μL once; Dunnett's test; FIG. 10
# Protocol: Cas9 protein (20 μg), mRosa26 gRNA (5 μg), 10×PBS (5 μL) and a 2.0 M aqueous 2′-deoxycytidine solution (6.25 μL) were mixed so as to obtain an aqueous solution having final concentrations of 400 ng/μL Cas9 protein, 100 ng/μL mRosa26 gRNA, 533 mM sodium chloride and 250 mM 2′-deoxycytidine. The concentration of the resultant solution was adjusted to be 533 mM with a 5 M aqueous sodium chloride solution, diluted with UltraPure DNase/RNase-Free Distilled Water up to a liquid volume of 50 μL and incubated at normal temperature for 15 minutes. […] The Cas9 protein herein was subjected to buffer replacement with 250 mM sodium chloride by use of Amicon® Ultra 2 mL Centrifugal Filters and then put in use.
# Cas9 protein (40 μg), mRosa26 gRNA (10 μg), 10×PBS (5 μL), and a […] compound stock solution (25 μL) were mixed so as to obtain final concentrations: 800 ng/μL Cas9 protein, 200 ng/μL mRosa26 gRNA, 533 mM sodium chloride and 250 mM compound. […]
# To the right lower limb gastrocnemius of each of 9 weeks-old male C57BL/6J mice (CLEA Japan, Inc), administration solution 1 or administration solution 2 and PBS (50 μL) were administered. […] The resultant PCR product was purified by QIAquick PCR purification kit (QIAGEN), treated with T7 Endonuclease I (NEB) and analyzed by Agilent 4200 TapeStation (Agilent). […]
# As shown in FIG. 10 and FIG. 11, to find statistical significant difference between GABA and each conditions of the compounds, Dunnett's multiple comparison test using DNA mutation introduction efficiency, Indel (%), and exon skipping efficiency, was carried out. It was determined that if P value is less than 0.05, these is a statistically significant difference. […]
# A solution for transduction containing 2′-deoxycytidine as a compound (A3) and sodium chloride as the (B) salt was prepared. […] Administration solution 1 was locally administered to the mouse right lower limb gastrocnemius and the activity to cleave a target gene was evaluated. […]
compound,measurement,setting,value
NC(=O)N[C@@H](CC(=O)O)C(=O)O [N-Carbamyl-L-aspartic acid],Relative ratio to GABA: Number of HOECHST cells,[1],1.19
same,Genome editing efficiency (indel (%)) compared to 250 mM GABA,[2],statistically significant results compared to GABA
